# Results taken from patent publication US12491175B2, “Composition containing carotenoids and use thereof for protecting neurons against neurodegeneration” (priority 2019, dated 2025).
# What was measured:
# HT22 neuronal cells [1] = test: Toxicity of pigment alone on HT22 neuronal cells (MTS cell viability); format: cell-based, mouse; conditions: 50 μM pigment, no glutamate; FIG. 1 white rectangles
# HT22 neuronal cells [2] = conditions: for effect on cell death of HT22 neuronal cells induced by glutamate: glutamate at 10 mM, FIG. 1
# Description: The HT22 neuronal cells (mouse hippocampus neuronal line) were treated for two hours with 50 μM of pigment, followed or not by the addition of 10 mM glutamate for 24 hours at 37° C. Cell viability (in %) was measured by an MTS test (by means of a CellTiter 96®Aqueous non-Radioactive Cell Proliferation Assay kit from Promega).
# The HT22 cells were treated for 2 hours either with diadinoxanthin (FIG. 2) or violaxanthin (FIG. 3) or diatoxanthin (comparative test shown in FIG. 4) at different concentrations. For each of the concentrations, cell death was then induced by glutamate (10 mM) for 24 hours at 37° C. Cell viability (in %) was measured by an MTS test. The values shown are the mean±standard deviation (n=3).
# The EC50 (half maximal effective concentration) is the concentration at which a molecule induces a response halfway between the baseline and the maximum effect after a certain exposure time thereof. This determines its efficacy.
Structure (SMILES),toxicity of pigment alone (cell viability) (HT22 neuronal cells [1]),effect on cell death of HT22 neuronal cells induced by glutamate (HT22 neuronal cells [2]),"EC50 (HT22 neuronal cells [2]; read-out: EC50 (half maximal effective concentration), dose-response, 2 hours pre-treatment, then glutamate 10 mM for 24 hours at 37° C., FIG. 2, FIG. 3) [µM]"
CC1=C(C#C/C(C)=C/C=C/C(C)=C/C=C/C=C(C)/C=C/C=C(C)/C=C/[C@@]23O[C@]2(C)C[C@@H](O)CC3(C)C)C(C)(C)C[C@H](O)C1 [diadinoxanthin],non-toxic,protective effect,22
CC(/C=C/C=C(C)/C=C/[C@@]12O[C@]1(C)C[C@@H](O)CC2(C)C)=C\C=C\C=C(C)\C=C\C=C(C)\C=C\[C@@]12O[C@]1(C)C[C@@H](O)CC2(C)C [violaxanthin],non-toxic,protective effect,–
